Assay results taken from paper PMC5914052, “ATR kinase inhibitors NVP-BEZ235 and AZD6738 effectively penetrate the brain after systemic administration” (Radiation Oncology (London, England), 2018).
Read-outs that look alike come from different tables or passages of the source.

How the values were obtained:
[1] = test system: COMI GIC-driven orthotopic GB; conditions: for Effect on survival of irradiated animals: 25 mg/Kg i.p. + 0.5 Gy IR, three consecutive days, versus vehicle+IR; for Median animal survival: 25 mg/Kg i.p. followed 4 h later by 0.5 Gy IR to the head, at d22, d23 and d24, vehicle (DMSO)+IR 99 days
[2] = Brain histopathology (H/E) of tumor-bearing mice treated with ATRi+IR; conditions: H/E staining at d88
[3] = test system: PI3K/mTOR pathway; conditions: cited from earlier work; for IC50: in cells
[4] = Pharmacokinetics after i.p. delivery: blood and brain concentration by HPLC/MS; format: in vivo, CD-1 mice; conditions: 25 mg/Kg i.p.; for concentration at 1 h / concentration at 2 h / concentration at 6 h / concentration at 8 h: mouse, ip, tumor-free CD-1 mice
Method: Tumor-free 8-weeks old CD-1 mice (Envigo, http://www.envigo.com) were inoculated i.p. with 25 mg/Kg body weight of NVP-BEZ235 or AZD6738. 1, 2, 6 and 8 h later, blood was collected by retro-orbital bleeding after which the mice were euthanized by CO2 asphyxiation and the brains explanted. Blood and brain samples were then extracted and NVP-BEZ235 and AZD6738 concentrations determined by High Performance Liquid Chromatography (HPLC)/mass spectrometry (MS) as described.
The biodistribution and pharmacokinetics of these ATRi, in particular the concentration reached in the brain after i.p. delivery, is crucial to determine optimal tumor radio-sensitization conditions in vivo. The presence of genuine NVP-BEZ235 and AZD6738 in the mouse blood and brain after i.p. delivery was investigated using HPLC/MS. Figure 1a and 1c show the isotopic patterns of NVP-BEZ235 and AZD6738 respectively, as determined by MS. A logarithmic relationship was found between abundance of NVP-BEZ235 (Fig. 1b) and AZD6738 (Fig. 1d) (expressed in arbitrary units) and their concentrations. For both NVP-BEZ235 and AZD6738, the Limit of Quantitation (LoQ) was 10 × 10^− 9 M. Tumor-free mice were inoculated i.p. with 25 mg/Kg body weight of NVP-BEZ235 (Fig. 1f) or AZD6738 (Fig. 1i). Mouse ID numbers are indicated at the top of Fig. 1f and I for the sake of reference. Blood samples were then withdrawn retro-orbitally after 1, 2, 6 and 8 h (Fig. 1g and k). Immediately after blood sampling, the animals were euthanized and their brains removed (Fig. 1e and h). All samples were homogenized and extracted concomitantly and its ATRi content determined by HPLC/MS. […] This value returned close to the LoQ (12 × 10^− 9 M) 8 h after the i.p. delivery (Fig. 1e).
Fig. 1 Pharmacokinetics of ATRi studied by HPLC/MS in positive polarity. a Isotopic pattern of NVP-BEZ235. b Relationship between HPLC/MS-determined abundance and concentration of NVP-BEZ235. The limit of quantitation (LoQ) was 10 × 10^− 9 M. c Isotopic pattern of AZD6738. d Relationship between HPLC/MS-determined abundance and concentration of AZD6738. The limit of quantitation (LoQ) was 10 × 10^− 9 M. e-g BBB crossing by NVP-BEZ235. Tumor-free mice were inoculated i.p. with 25 mg/Kg body weight of NVP-BEZ235 (f). At the indicated times [T (h)] blood was withdrawn retroorbitally for plasma isolation and analysis (g). Mice were then euthanized and the brains explanted (e). All blood and brain samples were then resuspended in water/methanol, homogenized, centrifuged and the supernatant determined for its NVP-BEZ235 concentration using HPLC/MS as described under Methods and Materials. Concentration values (× 10^− 9 M) are shown at the top of (e) and (g) and illustrated at half-panel by the area of a colored triangle. S.D. of values determined by this procedure is on average ± 31%. Mouse ID numbers are shown at the top of F for the sake of reference. h-k As in E-G but with AZD6738 TEXT PRINTED IN THE PICTURE: (e) NVP-BEZ235: [NVP-BEZ235] x 10^-9 M: 36 (T (h): 1; Brain); [NVP-BEZ235] x 10^-9 M: 111 (T (h): 2; Brain); [NVP-BEZ235] x 10^-9 M: 44 (T (h): 6; Brain); [NVP-BEZ235] x 10^-9 M: 12 (T (h): 8; Brain) | (g) NVP-BEZ235: [NVP-BEZ235] x 10^-9 M: 146 (T (h): 1; Blood); [NVP-BEZ235] x 10^-9 M: 32 (T (h): 2; Blood); [NVP-BEZ235] x 10^-9 M: 28 (T (h): 6; Blood); [NVP-BEZ235] x 10^-9 M: 12 (T (h): 8; Blood) | (h) AZD6738: [AZD6738] x 10^-9 M: 480 (T (h): 1; Brain); [AZD6738] x 10^-9 M: 380 (T (h): 2; Brain); [AZD6738] x 10^-9 M: 80 (T (h): 6; Brain); [AZD6738] x 10^-9 M: 9 (T (h): 8; Brain) | (k) AZD6738: [AZD6738] x 10^-9 M: 760 (T (h): 1; Blood); [AZD6738] x 10^-9 M: 1480 (T (h): 2; Blood); [AZD6738] x 10^-9 M: 140 (T (h): 6; Blood); [AZD6738] x 10^-9 M: 40 (T (h): 8; Blood)

[5] = test system: ATR; conditions: in cells, cited from earlier work
[6] = mouse, in vivo
[7] = test system: orthotopic xenograft models of GB; design: method as in PMID 27542970; conditions: nude rats and NOD/SCID mice; cited from earlier work
[8] = Tolerability of NVP-BEZ235 doses above 25 mg/Kg in animals; format: in vivo; conditions: our animals, data not shown
Text: Gil del Alcazar and coworkers have described radiosensitization of orthotopic GB by NVP-BEZ235 using the established glioma cell line U87 [15]. The U87-driven tumors yet poorly mimic the infiltrative and neovascularization growth properties of clinical GB [17]. Further, the U87 cell line was recently reported to represent a mix-up with another cell line. In order to investigate the radiosensitization properties of NVP-BEZ235 towards orthotopic GB driven by primary GIC that more faithfully mimic the clinical tumors growth, [17] we preliminarily investigated the pharmacokinetics of NVP-BEZ235 using HPLC/MS. […] The early termination of recent NVP-BEZ235 clinical trials due to elevated toxicity may confirm that safety dosing of NVP-BEZ235 should be thoroughly investigated prior to use. […] (Fig. 1e). […] NVP-BEZ235 can diffuse to brain tissues at pharmacologically active levels after systemic administration, albeit the presence of the efflux ABC-transporters (in particular ABCG2) at the BBB may in part restrict its brain penetration. In a preliminary tumor radiosensitization study, we then developed primary adult COMI tumors in NOD SCID mice, whose immunodeficient phenotype is required for reproducible engraftment in virtually 100% of mice (Fig. 2a). […]

[9] = brain, read-out: Brain concentration
[10] = plasma, read-out: Blood concentration

| SMILES | Effect on survival of irradiated animals [1] | Median animal survival [1] | concentration at 1 h [4, 9] | concentration at 2 h [4, 9] | concentration at 6 h [4, 9] | concentration at 8 h [4, 9] | concentration at 1 h [4, 10] | concentration at 2 h [4, 10] | concentration at 6 h [4, 10] | concentration at 8 h [4, 10] | further results |
| --- | --- | --- | --- | --- | --- | --- | --- | --- | --- | --- | --- |
| C[C@@H]1COCCN1c1cc(C2([S@](C)(=N)=O)CC2)nc(-c2cc[nH]c3nccc2-3)n1 [AZD6738] | could not observe any survival improvement | 101 days | 480 nM | 380 nM | 80 nM | 9 nM | 760 nM | 1480 nM | […] | […] | Brain histology variation versus DMSO+IR [2]: No significant histology variations; Inhibition of related kinases in the PI3K/mTOR pathway [3]: does not inhibit significantly; Brain concentrations achievable after i.p. administration relative to NVP-BEZ235 ([4]; AZD6738 versus NVP-BEZ235): […]; IC50 ([5]; read-out: IC50 for ATR kinase inhibition in cells): […] |
| Cn1c(=O)n(-c2ccc(C(C)(C)C#N)cc2)c2c3cc(-c4cnc5ccccc5c4)ccc3ncc21 [NVP-BEZ235] | no elongation of median survival | 86 days | 36 nM | 111 nM | 44 nM | 12 nM | 146 nM | 32 nM | 28 nM | 12 nM | Brain histology variation versus DMSO+IR [6]: No significant histology variations; IC50 ([3]; S473-Akt, read-out: Concentration giving 50% reduction of S473-Akt levels in cells): 8 nM; IC50 ([3]; T308-Akt, read-out: Concentration giving 50% reduction of T308-Akt levels in cells): 30 nM; Side effects of doses higher than 25 mg/Kg [7]: severe side effects; Survival benefit or inhibition of tumour growth [7]: no survival benefit or inhibition of tumour growth; Toxicity of doses higher than 25 mg/Kg i.p. [8]: significant toxicity; Decrease of blood concentration from 1 h to 2 h ([4]; 1 h versus 2 h): > 4 fold; IC50 ([5]; read-out: IC50 for ATR inhibition in cells): 21 nM |
